How the values were obtained:
[1] = test system: hepatocellular carcinoma cells HUH7; experiment: NET-promoted tumor sphere formation, liver cancer; format: cell-based; conditions: neutrophil medium, CM with or without brensocatib, FIG. 11N
Experimental: To test the therapeutic effects of brensocatib in different cancer types in vitro, the ability of brensocatib to inhibit NET-promoted tumor sphere formation is investigated. The neutrophils are cultured with conditioned medium from tumor cells of colon cancer, liver cancer, lung cancer, gastric cancer and pancreatic cancer with or without brensocatib treatment to activate NETosis, and then the neutrophil medium was used in tumor sphere formation of these cancer cells to analyze the effect of neutrophil medium to facilitate tumor cell growth. The amount of tumorsphere in each sample is then determined by imaging.

neutrophils = experiment: Neutrophil recruitment by cancer cell conditioned medium (Transwell chambers); format: cell-based, mice; conditions: CM of liver-metastatic breast cancer and bone-metastatic lung cancer cells, with or without brensocatib; FIGS. 11G, J
Experimental: To isolate neutrophil from bone marrow, bone marrow cells from 8 to 12-weeks-old BALB/c mice were harvested in sterile Hank's buffered salt solution (HBSS) without Ca^2+/Mg^2+ (14185052, Invitrogen), and laid on top of a 2-layer Percoll (17089102, GE Healthcare) gradient (72% and 63.5% in HBSS), followed by centrifugation at 1,200 g for 30 min at 25° C. Neutrophils enriched in the interface of 63.5%-72% fractions were confirmed to be of >95% purity by flow cytometry analysis. To isolate neutrophils from peripheral blood of mice, whole blood was collected via cardiac puncture (1 ml per animal) and suspended in HBSS (2 ml per animal) with 15 mM EDTA. After centrifugation (400 g, 10 min, 4° C.), white cells were resuspended in 2 ml HBSS with 2 mM EDTA. Then, the cells were centrifuged (1500 g, 30 min, room temperature) in a three-layer Percoll gradient (78%, 69%, and 52%) without braking. […] The purity of the isolated neutrophils was determined by May-Grunwald-Giemsa staining (40751ES02, Yea-sen). […]
The procedure of two-chamber migration assays was previously described (Zhuang et al., “Differential effects on lung and bone metastasis of breast cancer by Wnt signalling inhibitor DKK1,” Nat. Cell Biol. 19:1274-1285 (2017)). […] The migrated cells in the lower chamber were counted after 3 h. […]

[2] = test system: bone-metastatic breast cancer cell SCP2; experiment: Tumor sphere formation of bone-metastatic breast cancer cells in neutrophil medium; format: cell-based; conditions: neutrophils cultured with cancer cell CM with or without brensocatib, FIG. 11E
Experimental: The neutrophils are cultured with conditioned medium from the cancer cells with or without brensocatib treatment to activate NETosis, and then the neutrophil medium was used in tumor sphere formation of bone and liver-metastatic breast cancer cells to analyze the effect of neutrophil medium to facilitate tumor cell growth. The data are shown in FIG. 11E for bone-metastatic breast cancer cell SCP2 and FIG. 11H for liver-metastatic breast cancer cell SCP16.

4T1 breast cancer cells = experiment: Tumor sphere formation of 4T1 cells in medium of neutrophils pre-treated with 4T1 CM; format: cell-based; conditions: 4T1 cells in medium of neutrophils pre-treated with CM of 4T1; vs untreated control; FIG. 10F
IL-1β = IL-1β secretion of neutrophils pre-treated with CM of SCP28 cancer cells (ELISA); format: cell-based; conditions: human neutrophils pre-treated with CM of SCP28 with CTSC overexpressed; FIG. 7H
Experimental: ELISA kits were used to assay the levels of human IL-1β (88-7621-88, ThermoFisher), mouse IL-1β (432604, Biolegend), mouse IL6 (88-7064-88, ThermoFisher), mouse CCL3 (88-56013-88, ThermoFisher) in cell culture supernatants or sera according to the manufacturer's instruction. Briefly, 96-well MaxiSorp™ ELISA Plates (44-2404, ThermoFisher) was coated with capture antibody overnight at 4° C. in coating buffer (15 mM of Na2CO3, 35 mM of NaHCO3, at pH 9.6). After three washes in PBS, the wells were blocked with 5% BSA in PBS for 45 min at room temperature. Then, 100 μl of cell culture supernatants or sera and standard samples were added into the wells and incubated for 2 h at room temperature, and the plates were washed three times with washing buffer (1% BSA, 0.05% Tween-20 in PBS). Next, biotin-conjugated detection antibody in 2.5% BSA was added into the wells and incubated for 2 h at room temperature. After three washes with washing buffer, HRP-streptavidin was incubated for 45 min at room temperature. Then, signals were detected using TMB solution and read at 450 nm.

Cn1c(=O)oc2ccc(-c3ccc(C[C@@H](C#N)NC(=O)[C@@H]4CNCCCO4)cc3)cc21 [brensocatib, (2S)—N-{(1S)-1-cyano-2-[4-(3-methyl-2-oxo-2,3-dihydro-1,3-benzoxazol-5-yl)phenyl]ethyl}-1,4-oxazepane-2-carboxamide]
NET-promoted tumor sphere formation (in vitro tumor growth) [1]: inhibit in vitro tumor growth
neutrophil recruitment (neutrophils): significantly reduced
capability of drug-treated neutrophils to facilitate tumor cell growth (tumor sphere formation) [2]: significantly weakened
tumor sphere formation (4T1 breast cancer cells): suppressed

CC(C)(C)C(=O)Oc1ccc(S(=O)(=O)Nc2ccccc2C(=O)NCC(=O)O)cc1 [Silvelestat]
IL-1β levels (secretion) of neutrophils (IL-1β): reduces

— patent publication US12697328B2, “Methods for treating metastasis with cathepsin C inhibitors” (Shanghai Institute of Nutrition and Health, Chinese Academy …, priority 2020, dated 2026)
